According to patent publication US11672787B2, “Compounds as mPGES-1 inhibitors” (Khondrion IP B.V., priority 2017, dated 2023):
Structures can show the parent of a compound that is named as a salt.

Assays:
mPGES-1 = biological target: T1, mPGES-1 (Mus musculus, UniProt Q9JM51); assay: Microsomal PGES activity: conversion of PGH2 to PGE2 by microsomal fractions of LPS-treated RAW 264.7 cells; assay type: biochemical, murine; conditions: for IC50: microsomal fraction of RAW 264.7 cells treated 24 hours with LPS 1 μg/mL, conversion of PGH2 to PGE2, read-out: IC50 (inhibition of mPGES-1 enzyme activity); for mPGES-1 activity in purified microsomes: 30 minutes
T1 construct: endogenous in cells; host or cells: RAW 264.7 cells treated 24 h with 1 ug/mL LPS; 100,000 g microsomal pellet
T1 sequence (Q9JM51 1-153): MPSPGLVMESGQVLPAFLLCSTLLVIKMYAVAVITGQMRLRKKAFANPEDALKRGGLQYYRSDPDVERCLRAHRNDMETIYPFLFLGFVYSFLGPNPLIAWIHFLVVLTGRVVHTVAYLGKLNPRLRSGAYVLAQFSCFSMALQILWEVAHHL
Description: FIG. 6. mPGES-1 activity was assayed as conversion of PGH2 to PGE2 by microsomal fractions of RAW 264.7 cells treated for 24 hours with LPS 1 μg/mL to increase mPGES-1 expression. The microsomal fraction was exposed to increasing concentrations of compound to be tested, or 3 μM of know mPGES-1 inhibitors MK866 or PF9184 as positive controls. PGE2 level was normalized on the vehicle treated microsomal samples (100%). (A) compound I-IVb-X; (B) compound I-IVb-AE; (C) compound I-IVb-A-HCl; (D) compound I-IVb-I.
PGES activity was measured by assessment of the conversion of PGH2 to PGE2. In brief, after 24 hours incubation with 1 μg/mL LPS the cells were harvested and lysed by sonication (three times for 10 seconds each, at 1 min intervals) in 300 μl of 1 M Tris-HCl (pH 8.0). After centrifugation of the lysate at 12,000 g for 10 min at 4° C., the supernatant was collected and further centrifuged at 100,000 g for 1 h at 4° C. The pellets (microsomal membranes) were resuspended in 100 μl of 0.1M Tris-HCl, pH 8.0, containing protease inhibitors) and subjected to measurement of microsomal PGES activity. For measurement of PGES activity, an aliquot of each sample equivalent to 50 μg of protein was incubated with 2 μg of PGH2 for 60 s at 24° C. in 0.1 ml of 1 M Tris-HCl containing 2 mM glutathione (Sigma-Aldrich) and 14 μM indomethacin, in the absence or presence of the tested compounds. The reaction was terminated by the addition of 100 mM FeCl2, and further incubated at 20-25° C. for 15 min. After centrifugation of the reaction mixture, the PGE2 concentration in the supernatant was measured with the PGE2 high sensitivity EIA kit (Enzo Life Science) according to manufacturer's instructions.
RAW 264.7 macrophage cells were treated with the inflammatory stimulus LPS to increase the expression of mPGES-1. After 24 hours incubation the microsomes were isolated and exposed to increasing concentration of compound I-IVb-X or a single concentration of previously described mPGES-1 inhibitors MK866 and PF9184 for 30 minutes. The activity of mPGES-1 was then assayed in the microsomes fraction as the conversion of PGH2 to PGE2.
Using the methods as described in Example 1, additional compounds were tested. Table 1 provides an overview of the compounds that were tested, along with corresponding IC50 values. FIGS. 6B, 6C, and 6D show corresponding inhibition curves for I-IVb-AE, I-IVb-A-HCl, and I-IVb-I, respectively.

[1] = tested on: human primary skin fibroblasts; assay: Prostaglandin levels (ELISA) in supernatant of LPS- or IL-1β-stimulated human primary skin fibroblasts; assay type: cell-based; conditions: 24 hours
Description: FIG. 3. (A-B) Levels of PGE2 (A) and PGD2 (B) in supernatant of human primary skin fibroblasts exposed for 24 hours to vehicle, 1 μg/mL LPS or 1 μg/mL Interleukin-1β (IL-1β), normalized on vehicle. (C-D) Levels of PGE2 and PGD2 in supernatant of human primary skin fibroblasts exposed for 24 hours to 1 μg/mL LPS (C) or 1 μg/mL IL-1β (D) alone (set as 100%) or in combination with increasing concentrations of compound I-IVb-X (indicated as KH).
The cells were maintained in M199, HEPES (Thermo Fischer Scientific) containing 10% FBS (#758093, Greiner Bio-one), 100 IU/ml penicillin and 100 μg/ml streptomycin (#30-002-CI, Corning) under a humidified atmosphere of 5% CO2 at 37° C. The cells were passaged by trypsinization every 4-5 days until they reached the passage number 20, and then discarded. The cells were grown to 80% confluence, trypsinized and then cultured in 96-well plates (4×10^3 cells/well) 24 hours before an experiment.
The concentration of the PGE2, PGD2 and 6-keto-PGF1α in culture medium was determined by Enzyme-Linked Immuno Sorbent Assay (ELISA) using, respectively, the PGE2 high sensitivity EIA kit (Enzo Life Science), the Prostaglandin D2-MOX ELISA Kit (Cayman Chemicals) and the 6-keto Prostaglandin F1α ELISA Kit (Cayman Chemicals), according to the manufacturer's instructions. […]

[2] = tested on: RAW 264.7 murine macrophage cells; assay: Prostaglandin levels (ELISA) in supernatant of LPS-stimulated RAW 264.7 cells; assay type: cell-based; conditions: 1 μg/mL LPS, 24 hours, increasing concentrations
Description: FIG. 2. (A-C) Levels of prostaglandins (PG) PGE2 (A), PGD2 (B) and 6-keto PGF1a (C) in supernatant of RAW 264.7 murine macrophage cells exposed for 24 hours to vehicle or 1 μg/mL lipopolysaccharide (LPS), normalized on vehicle. (D-F) Levels of PGE2, PGD2 and 6-keto PGF1a in supernatant of RAW 264.7 murine macrophage cells exposed for 24 hours to vehicle or 1 μg/mL LPS, alone (set as 100%) or in combination with increasing concentrations of compound I-IVb-X (a compound of general structure (I) wherein T is of general structure (IVb), in the S,R-configuration, and wherein as per compound X the following apply: L=L^19; R^1═H; R^2—R^2′=L^3; R^3═H; indicated as KH) (D), non-selective COX inhibitor indomethacin (E) or COX-2 inhibitor celecoxib (F).
RAW264.7 cells (Sigma-Aldrich, St-Louis) were maintained in DMEM (Thermo Fisher Scientific) containing 10% FBS (Greiner Bio-one), and antibiotics (100 U/ml penicillin, 100 μg/ml streptomycin) under a humidified atmosphere of 5% CO2 at 37° C. The cells were grown to 80% confluence, scraped and then cultured in either 96-well plates (2×10^4 cells/well) or six-well plates (4×10^5 cells/well) for 6-24 hours before an experiment.
The concentration of the PGE2, PGD2 and 6-keto-PGF1α in culture medium was determined by Enzyme-Linked Immuno Sorbent Assay (ELISA) using, respectively, the PGE2 high sensitivity EIA kit (Enzo Life Science), the Prostaglandin D2-MOX ELISA Kit (Cayman Chemicals) and the 6-keto Prostaglandin F1α ELISA Kit (Cayman Chemicals), according to the manufacturer's instructions. Samples (100 μl) of culture medium from each well were harvested and diluted with the assay buffer.
RAW 264.7 macrophage cells were treated with the inflammatory stimulus LPS alone or in combination with increasing concentrations of compound I-IVb-X (a compound of general structure (I) wherein T is of general structure (IVb), in the S,R-configuration, and wherein as per compound X the following apply: L=L^19; R^1═H; R^2—R^2′=L^3; R^3═H), the NSAID indomethacin or the Coxib Celecoxib. After 24 hours incubation the levels of PGE2, PGD2 and 6-keto PGF1a were quantified in the cell supernatant by ELISA. […] Similar results were obtained with compound I-IVb-X in human primary skin fibroblasts.

[3] = single concentration (3 μM), positive controls

## CC1=C(C)C(=O)C(CC[C@](C)(O)C(=O)N2CCNCC2)=C(C)C1=O [I-IVb-A-HCl]
mPGES-1
  IC50: 1020 nM

## CC1=C(C)C(=O)C(CC[C@](C)(O)C(=O)N2CCC(NC(=O)[C@H](C)N)CC2)=C(C)C1=O [I-IVb-AB-HCl]
mPGES-1
  IC50: 238 nM

## CC1=C(C)C(=O)C(CC[C@](C)(O)C(=O)N[C@H]2CC[C@H](N)CC2)=C(C)C1=O [I-IVb-AE]
mPGES-1
  IC50: 18 nM

## CC1=C(C)C(=O)C(CC[C@](C)(O)C(=O)N[C@H]2CN3CCC2CC3)=C(C)C1=O [I-IVb-AI-HCl]
mPGES-1
  IC50: 726 nM

## CC1=C(C)C(=O)C(CC[C@](C)(O)C(=O)Nc2ccc(CN)cc2)=C(C)C1=O [I-IVb-AJ-HCl]
mPGES-1
  IC50: 1050 nM

## CC1=C(C)C(=O)C(CCC(C)(O)C(=O)NCCN(C)C)=C(C)C1=O (stereo not shown) [I-IVb-I]
mPGES-1
  IC50: 1120 nM

## CC1=C(C)C(=O)C(CCC(C)(O)C(=O)N[C@@H](CCCN)C(=O)O)=C(C)C1=O (stereo partly shown) [I-IVb-N]
mPGES-1
  IC50: 10.4 nM

## CC1=C(C)C(=O)C(CC[C@](C)(O)C(=O)N[C@@H]2CCCNC2)=C(C)C1=O [I-IVb-X]
[1]; 1 μg/mL IL-1β
  level of PGE2 in supernatant: efficiently reduce
[1]; 1 μg/mL LPS
  level of PGE2 in supernatant: efficiently reduce
mPGES-1; increasing concentration of compound
  mPGES-1 activity in purified microsomes: decreased
mPGES-1
  IC50: 458 nM
[2]
  level of 6-keto PGF1a in cell supernatant: no effect
  level of PGD2 in cell supernatant: no effect
  level of PGE2 in cell supernatant: dose-dependently reduce

## CC(C)c1ccc2c(c1)c(SC(C)(C)C)c(CC(C)(C)C(=O)O)n2Cc1ccc(Cl)cc1 [MK866, reference compound]
mPGES-1; [3]
  mPGES-1 activity in purified microsomes: decreased

## O=C(Nc1ccc(-c2ccc(Cl)c(Cl)c2)cc1)C1=C(O)c2ccccc2S(=O)(=O)N1 [PF9184, reference compound]
mPGES-1; [3]
  mPGES-1 activity in purified microsomes: decreased

## COc1ccc2c(c1)c(CC(=O)O)c(C)n2C(=O)c1ccc(Cl)cc1 [indomethacin, reference compound]
[2]
  level of 6-keto PGF1a in cell supernatant: dose-dependently reduced
  level of PGD2 in cell supernatant: dose-dependently reduced
  level of PGE2 in cell supernatant: dose-dependently reduced
